The text below walks through data of patent US6482827B1, “Matrix metalloproteinase inhibitors” (Pharmacia & Upjohn S.p.A., priority 1997, dated 2002).

Assay [1] has as its target T1, Human collagenase (MMP-1) (Homo sapiens, UniProt P03956).
T1 sequence (P03956 101-269): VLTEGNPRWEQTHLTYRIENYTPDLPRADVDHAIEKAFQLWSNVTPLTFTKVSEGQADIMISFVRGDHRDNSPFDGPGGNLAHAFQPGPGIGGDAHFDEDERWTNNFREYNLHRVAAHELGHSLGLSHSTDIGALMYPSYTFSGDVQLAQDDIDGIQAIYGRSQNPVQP
In words: Biochemical assay (Protocol A), Ki at steady state, MMP-1. The settings on record: preincubation, 37° C., pH=7.4, read-out: Ki at steady state (Ki*) for inhibition of MMP-1. As for the experimental part:
(§1) Human gelatinase-A (MMP-2) was obtained as pro-enzyme (72 kDa) and was activated with 1 mM 4-aminophenylmercuric acetate for 30 min at 37° C. immediately prior to use. Human stromelysin-1-255 (MMP-3) was obtained as a recombinant pro-enzyme isolated from E. coli and activated by heat (1 h, 55° C.).
(§2) The substrate was the commercial quenched-fluorescence peptide Mca-Pro-Leu-Gly-Leu-Dpa-Ala-Arg-NH2, that is (7-methoxycoumarin4-yl)Acetyl-Pro-Leu-Glv-Leu-(3-[2,4-dinitrophenyl]-L-2,3-diamino-propionyl)-Ala-Arg-NH2 (C. G. Knight et al., FEBS Lett.296:263, 1992). The enzymes cleave at the Gly-Leu bond, removing the internally quenching Dpa group. Release of the highly fluorescent peptide Mca-Pro-Leu was followed fluorimetrically at 37° C. using a Perkin Elmer LS-50 Fluorescence Spectrophotometer fitted with a thermostatted four position stirring cell changer. The excitation wavelength was set at 326 nm (bandwidth 5 nm) and the emission at 392 nm (bandwidth 20 nm). Km values of this substrate for the three MMP's is 70 μM or more (Knight et al., reference above). Substrate concentration was 2 μM in the tests, so that we could approximate to unit the term (1+[substrate]/KM) in calculations. The substrate was stable for over 60 minutes in the assay conditions, giving no appreciable increment of fluorescence. Full response was adjusted against 200 nM Mca-Pro-Leu-OH (the released fluorescent peptide) and the instrument was calibrated in the range 0-100 nM Mca-Pro-Leu-OH, corresponding to 0-5% extent of hydrolysis of the 2 μM substrate. The aqueous assay buffer was 50 mM Tris/HCl pH=7.4 containing 0.15 M NaCl, 10 mM CaCl2, 0.01 mM ZnCl2 and 0.05% Brij 35. The concentration of the activated enzyme was determined by titration against representative inhibitors described in the literature and synthesized in house: Roche Ro31-9790 (N. G. Knebel et al., J. Chromatogr. B 673:213, 1995) for MMP-1, and Celltech CT-1418 (compound 1 in S. K. Chander, J. Pharm. Sci. 84:404, 1995) for MMP-2 and MMP-3. Enzyme concentrations in the tests were set at 1.0 nM for MMP-1, 0.04 nM for MMP-2, and 3.0 nM for M-3. Under our assay conditions, we measured keat/KM values of 26900, 669000 and 9740 1/(M×s) for MMP-1, MMP-2 and MMP-3, respectively. All the three enzymes were found stable for over three hours in the assay conditions.
(§3) The inhibition constant for compounds of the present invention was measured at steady state (Ki*; see J. F. Morrison and C. T. Walsh, Adv. Enzymol. Relat. Areas Mol. Biol. 61:201, 1988), upon preincubation experiment, by measuring V0, the initial rate in the absence of inhibitor, and Vs, the steady-state velocity, at different concentrations of inhibitors in the region of their enzyme-inhibitor dissociation constants.
(§4) On a routine basis, 1.94 mL of assay buffer was pre-heated at 37° C. in a vial, 0.02 mL of inhibitor in DMSO (or DMSO only), and 0.02 ml of 100 nM MMP-1 or 4 nM MMP-2 or 300 nM MMP-3 were added, mixed, and the vial was held at 37° C. for 5-180 minutes. Then 0.02 ml of 0.2 mM substrate was added, mixed and transferred into a pre-heated cell. The sample was allowed to equilibrate in the cuvette for 3-5 min at 37° C. against small changes in temperature and changes in the enzyme-inhibitor equilibria related to addition of substrate. After that, the linear increase of fluorescence was monitored over 3-5 min, and the slope (Vo or Vs) was obtained. Inhibitor concentrations were varied to collect data over Vs/Vo ratio ranging from 0.05 to 0.95. The values of Ki* were calculated by nonlinear weighted regression to the tight-binding equation according to Morrison and Walsh above:
(§5) Vs/Vo=[1/(2×Et)]×SQR[(Ki*+It−Et)^2+4×Ki*×Et]−(Ki*+It−Et)
(§6) wherein Et is the total enzyme concentration, and It is the total inhibitor concentration. The following Table I lists Ki* obtained for some representative examples: […]

Assay [2] concerns the target T2, Human gelatinase-A (MMP-2) (Homo sapiens, UniProt P08253).
T2 sequence (P08253 110-660): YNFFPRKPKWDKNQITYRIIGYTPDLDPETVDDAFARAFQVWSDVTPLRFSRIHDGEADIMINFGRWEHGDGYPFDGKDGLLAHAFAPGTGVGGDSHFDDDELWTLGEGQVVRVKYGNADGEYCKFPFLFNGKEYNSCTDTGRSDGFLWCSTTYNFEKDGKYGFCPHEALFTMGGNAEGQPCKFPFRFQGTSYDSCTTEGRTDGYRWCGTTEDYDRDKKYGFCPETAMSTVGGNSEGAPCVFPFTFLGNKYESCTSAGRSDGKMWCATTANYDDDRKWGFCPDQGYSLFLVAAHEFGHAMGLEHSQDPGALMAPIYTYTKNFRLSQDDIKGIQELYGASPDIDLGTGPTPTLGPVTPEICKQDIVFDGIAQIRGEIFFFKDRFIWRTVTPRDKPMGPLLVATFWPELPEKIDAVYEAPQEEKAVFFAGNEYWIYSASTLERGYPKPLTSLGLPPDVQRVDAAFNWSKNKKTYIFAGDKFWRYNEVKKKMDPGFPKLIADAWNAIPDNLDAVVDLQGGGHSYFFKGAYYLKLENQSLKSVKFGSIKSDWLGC
The experiment in a line: Biochemical assay (Protocol A), Ki at steady state, MMP-2. As to conditions: preincubation, 37° C., pH=7.4, read-out: Ki at steady state (Ki*) for inhibition of MMP-2. As for the experimental part:
as §1, §2, §3, §4, §5, §6

Assay [3] concerns the target T3, Human stromelysin-1-255 (MMP-3) (Homo sapiens, UniProt P08254).
T3 construct: host or cells: E. coli
In words: Biochemical assay (Protocol A), Ki at steady state, MMP-3. As to conditions: preincubation, 37° C., pH=7.4, read-out: Ki at steady state (Ki*) for inhibition of MMP-3. The procedure:
as §1, §2, §3, §4, §5, §6

T3 sequence (P08254 100-255 limits assumed): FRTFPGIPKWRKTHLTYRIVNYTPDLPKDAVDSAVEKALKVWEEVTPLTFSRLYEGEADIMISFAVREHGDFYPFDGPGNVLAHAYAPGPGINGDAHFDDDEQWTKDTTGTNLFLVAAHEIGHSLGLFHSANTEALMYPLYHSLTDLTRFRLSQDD

The term Ki denotes the dissociation constant of the complex between target and ligand, obtained from inhibition or displacement. Turning to `COc1ccc(CCC[C@@H](C(=O)N2CCOCC2)[C@H](NC(=O)OC(C)(C)C)C(=O)NO)cc1` [Example 15, (3S-tert-Butoxycarbonylamino-4-hydroxyamino-2R-(4-methoxy)phenpropyl)succinyl-morpholinamide], the Ki came to 17000 nM in assay [1], 630 nM in assay [2] and 6500 nM in assay [3].
The corresponding values for `COc1ccc(CCC[C@@H](C(=O)N2CCCCC2)[C@H](NC(=O)OC(C)(C)C)C(=O)NO)cc1` [Example 17, (3S-tert-Butoxycarbonylamino-4-hydroxyamino-2R-(4-methoxy)phenpropyl)succinyl-piperidinamide] are 9400 nM, 610 nM and 4300 nM.
With `COc1ccc(CCC[C@@H](C(=O)N2CCOCC2)[C@H](NS(=O)(=O)c2ccc(OC)cc2)C(=O)NO)cc1` [Example 20, (4-Hydroxyamino-3S-(4-methoxyphenylsulfonyl)amino-2R-(4-methoxy)phenpropyl)succinyl-morpholinamide], the Ki in assay [1] was found to be 2000 nM; in assay [2] it was 40 nM; in assay [3], 390 nM.
Consider `COc1ccc(S(=O)(=O)N[C@H](C(=O)NO)[C@@H](CC2CCCC2)C(=O)N2CCCCC2)cc1` [Example 23, (2R-Cyclopentylmethyl-4-hydroxyamino-3S-(4-methoxyphenylsulfonyl)amino)succinyl-piperidinamide], for which the figures for the Ki in assay [1], in assay [2] and in assay [3] were 3 nM, 16 nM and 145 nM, respectively.
`CC(C)C[C@@H](C(=O)NC(C1CCCCC1)C1CCCCC1)[C@H](N)C(=O)NO` [Example 24, (3S-Amino-4-hydroxyamino-2R-isobutyl)succinyl-dicyclohexylmethylamide]: the Ki stood at 170 nM in assay [1], 400 nM in assay [2] and 11000 nM in assay [3].
The matching figures for `CC(C)C[C@@H](C(=O)NC(c1ccccc1)c1ccccc1)[C@H](N)C(=O)NO` [Example 25, (3S-Amino-4-hydroxyamino-2R-isobutyl)succinyl-diphenylmethylamide]: 76 nM, 190 nM and 2300 nM.
The corresponding values for `CC(C)(C)OC(=O)N[C@H](C(=O)NO)[C@@H](CC1CCCC1)C(=O)N1CCN(Cc2ccc3c(c2)OCO3)CC1` [Example 26, (3S-tert-Butoxycarbonylamino-2R-cyclopentylmethyl-4-hydroxyamino)succinyl-(4-piperonyl)piperazinamide] are 71 nM, 100 nM and 600 nM.
The corresponding values for `COc1ccc(CCC[C@@H](C(=O)N2CCC2)[C@H](N)C(=O)NO)cc1` [Example 28, (3S-Amino-4-hydroxyamino-2R-(4-methoxy)phenpropyl)succinyl-azetidinamide] are 7500 nM, 600 nM and 10000 nM.
Turning to `CN(C)[C@H](C(=O)NO)[C@@H](CC1CCCC1)C(=O)N1CCCCC1` [Example 30, (2R-Cyclopentylmethyl-3S-N,N-dimethylamino-4-hydroxyamino)succinyl-piperidinamide], the Ki turned out to be 3.6 nM in assay [1], 25 nM in assay [2] and 270 nM in assay [3].
The corresponding values for `COc1ccc(CCC[C@@H](C(=O)N[C@H](C)C2CCCCC2)[C@H](N)C(=O)NO)cc1` [Example 32, (3S-Amino-4-hydroxyamino-2R-(4-methoxy)phenpropyl)succinyl-(1R-cyclohexylethyl)amide] are 2600 nM, 37 nM and 500 nM.
For the compound `COc1ccc(CCC[C@@H](C(=O)N[C@@H](C)C2CCCCC2)[C@H](N)C(=O)NO)cc1` [Example 33, (3S-Amino-4-hydroxyamino-2R-(4-methoxy)phenpropyl)succinyl-(1S-cyclohexylethyl)amide], the Ki in assay [1] was greater than 10000 nM; in assay [2], 460 nM; in assay [3], 6600 nM.
As to `COc1ccc(CCC[C@@H](C(=O)N2CCC(C(=O)NC(C)(C)C)CC2)[C@H](N)C(=O)NO)cc1` [Example 34, (3S-Amino-4-hydroxyamino-2R-(4-methoxy)phenpropyl)succinyl-(4-tert-butylaminocarbonyl)piperidinamide], the results for the Ki in assay [1], in assay [2] and in assay [3] were 2400 nM, 21 nM and 1400 nM, respectively.
For `CN(C)[C@H](C(=O)NO)[C@@H](CC1CCCC1)C(=O)N1CCN(Cc2ccc3c(c2)OCO3)CC1` [Example 35, (2R-Cyclopentylmethyl-3S-N,N-dimethylamino-4-hydroxyamino)succinyl-(4-piperonyl)-piperazinamide], the Ki in assay [1] stood at 2.9 nM; in assay [2], 8 nM; in assay [3], 31 nM.
The matching figures for `COc1ccc(S(=O)(=O)N[C@H](C(=O)NO)[C@@H](CC2CCCC2)C(=O)N2CCN(Cc3ccc4c(c3)OCO4)CC2)cc1` [Example 37, (2R-Cyclopentylmethyl-4-hydroxyamino-3S-(4-methoxyphenyl)sulfonylamino)succinyl-(4-piperonyl)piperazinamide]: 1.8 nM, 2.6 nM and 35 nM.
The matching figures for `COc1ccc(CCC[C@@H](C(=O)N2CCCCC2)[C@H](NCc2cccnc2)C(=O)NO)cc1` [Example 39, (4-Hydroxyamino-2R-(4-methoxy)phenpropyl-3S-(3-pyridyl)methylamino)succinyl-piperidinamide]: 760 nM, 90 nM and 806 nM.
`O=C(NO)[C@@H](NS(=O)(=O)c1ccc(F)cc1)[C@@H](CC1CCCC1)C(=O)N1CCCCC1` [Example 61, (2R-Cyclopentylmethyl-3S-(4-fluorophenylsulfonyl)amino-4-hydroxyamino)succinylpiperidinamide]: the Ki is 7.8 nM in assay [1] and 66 nM in assay [2].
